The source of these data is article PMC3638593, “1,4-dihydroxy-2-naphthoic Acid Induces Apoptosis in Human Keratinocyte: Potential Application for Psoriasis Treatment” (Evidence-based Complementary and Alternative Medicine : eCAM, 2013).

Holding throughout (type): cell-based, human
For data set [1], the system named is HaCaT cells. Nature of the data set: Proliferation assay (sulphorhodamine B) on HaCaT. The settings on record: Homo sapiens, read-out: IC50 on growth. The source says: (§1) The spontaneously immortalized human epidermal keratinocyte HaCaT cells were purchased from China Centre for Type Culture Collection, Wuhan, China. The human foreskin fibroblast Hs-68 cells were purchased from the American Type Culture Collection (Manassas, VA, USA). The human undifferentiated keratinocyte NCTC 2544 cells were provided by Interlab Cell Line Collection (Genoa, Italy) and the immortalized human epidermal melanocyte PIG1 cells were a gift from Dr Caroline Le Poole (Loyola University Chicago, Maywood, IL, USA). HaCaT and Hs-68 cells were maintained in DMEM, NCTC 2544 in RPMI 1640 and PIG1 cells in Medium 254 with Human Melanocyte Growth Supplement-2, respectively. All cells were cultured in complete medium containing 10% FBS, 100 μg/mL of streptomycin, and 100 U/mL of penicillin (Gibco Laboratories) at 37°C in a humidified atmosphere of 5% CO2. Cell culture experiments were carried out at 60–80% confluent.
(§2) The ethyl acetate extract (EA) of Rubia cordifolia L. was isolated as described. 1,4-dihydroxy-2-naphthoic acid (98%), dithranol (≥90%), and EA were dissolved in DMSO as stock. All cells were seeded and treated with various concentrations of DHNA, dithranol or EA. After treatment, cells were fixed with cold 50% trichloroacetic acid and incubated 1 h at 4°C. Cell was then washed with deionized water, air-dried, and stained with 0.4% (w/v) sulphorhodamine B for 30 min at room temperature. Unincorporated dye was removed with 1% acetic acid wash and the cell was again air-dried. Incorporated dye was then solubilized in 10 mM Tris base and absorbance was measured at 565/690 nm using a Sunrise microplate spectrophotometer (Tecan, Switzerland). IC50 were determined using GraphPad Prism 5.0 (GraphPad Software, San Diego, CA, USA).

A further data set concerns NCTC 2544 cells. Put plainly: Proliferation assay (sulphorhodamine B) on NCTC 2544. Particulars: Homo sapiens, read-out: IC50 on growth.
Source text: as §1, §2

In data set [2] the test system is IL-1α release from NCTC 2544 cells. Nature of the data set: IL-1α release assay (ELISA). As for the experimental part: NCTC 2544 cells were seeded and treated with various concentrations of DHNA or dithranol for 72 h. After incubation, the microplate was centrifuged and conditioned medium was collected to determine the extracellular IL-1α (IL-1α release) using an IL-1α ELISA kit (Diaclone Research, France). All other steps were then according to the manufacturer's protocol. Results were expressed in pg/mL.

Data set [3] concerns HaCaT cells. Nature of the data set: Annexin V/propidium iodide staining, flow cytometry. The settings on record: 40 μM pretreatment 1 h, then DHNA 24 h. As for the experimental part: After DHNA treatment, HaCaT cells were resuspended in annexin V binding buffer (10 mM HEPES, 140 mM NaCl, and 2.5 mM CaCl2, pH 7.4) and then incubated with FITC-conjugated annexin V (Biosource International, Inc., USA), and 0.5 μg/mL propidium iodide (PI) for 15 min at room temperature in the dark. Cells were analyzed on a FACSCanto flow cytometer (BD Biosciences, San Jose, CA, USA) immediately and then analyzed using WinMDI 2.9 (developed by Dr. J. Trotter, Scripps Institute, La Jolla, CA, USA). The total number of early (FITC+/PI−) and late (FITC+/PI+) apoptotic cells was assessed. In another experiment, HaCaT cells were preincubated with 40 μM pan-caspase inhibitor Z-VAD-FMK (BD Pharmingen, San Diego, CA, USA) for 1 h before exposure to DHNA.

Several values for one entry are separate records, joined by “and”; a condition that tells them apart may be missing. Equal entries are not always repeated. Where two headings read alike, the source gives them in different places. * marks the point of attachment. Cbz = O=C(OCc1ccccc1)*; CH2F = FC*

Regarding `O=C1c2c(O)cccc2Cc2cccc(O)c21` [Dithranol, dithranol, reference compound], the IC50 was 24.8 µM and 5.6 µg/mL in the data set on HaCaT cells [1] (incubation 48 h); 9.39 µM and 2.12 µg/mL in the data set on HaCaT cells [1] (incubation 72 h); 6.21 µM and 1.41 µg/mL in the data set on NCTC 2544 cells (NCTC 2544, incubation 48 h); 3.81 µM and 0.86 µg/mL with NCTC 2544 cells (NCTC 2544, incubation 72 h). For the same compound, the “IL-1α release at concentrations below IC50 on NCTC 2544” value in data set [2] (2 to 3 μM or 0.45 to 0.68 μg/mL, 72 h) is “readily induced the release of this cytokine”. The “IL-1α release versus vehicle control” value in data set [2] (2 to 8 μM (0.45 to 1.81 μg/mL), 72 h) was “induced significant release of this cytokine at all concentrations tested”. In data set [2] (NCTC 2544, 72 h, versus vehicle control), the “concentration at which IL-1α release is significantly induced” value is 2 μM and 0.45 μg/mL.

Take “Cbz-Val-Ala-Asp-CH2F [reference compound]”: the “effect of pan-caspase inhibitor on DHNA-induced apoptosis” value in the data set with HaCaT cells [3] is given as “partially blocked”.
